Series [1] relates to novel xylanase. Briefly: Effect of metal ions and additives on xylanase activity (DNS method). It is filed as biochemical, Paenibacillus sp. HPL-3. How it is done:
(§1) The measurement of xylanase activity (xylan decomposing activity) of the isolated strain, active clone, transformant, and isolated/purified enzyme was performed by either or both of the following two methods. The first method was enzyme activity measuring method using solid culture. Particularly, soft agar double medium was prepared by adding birch xylan (Fluka Bio Chemika. Co.) to LB medium by 0.5˜1.0%, to which the strain was inoculated, followed by culture for overnight. On the next day, the strain and active clone forming translucent zone (halo) around the cultured colony were selected by Congo-red staining. The second method was enzyme activity measuring method using liquid culture, that is DNS (3,5-dinitrosalicylic acid) quantitative method (Miller G. L. Anal Chem 31, 426-428, 1959). Particularly, 50 μl of substrate solution (50 mM Tris-HCl containing birch xylan by 2%, pH 7.0) was added to 50 μl of enzyme solution, followed by reaction at 50° C. for 20 minutes. 200 μl of DNS solution was added thereto, followed by further reaction at 90° C. for 5 minutes. Then, OD540 was measured. 1 unit of the enzyme was defined as the enzyme activity of 1 mg xylanase to produce 1 μmol of reducing sugar (xylose) per 1 minute.
To investigate the effect of metal ions on xylanase activity, CaCl2, MgCl2, MgCl2, CuCl2, ZnCl2, and FeCl3 were added by 1 mM each. It was further investigated how other salts such as NaCl, LiCl, KCl, NH4Cl, EDTA, CsCl2, 2-ME (2-Mercaptoethanol), DTT (Dithiothreitol), PMSF (Penylmethylsulfonyl fluoride), acetate, and furfural could affect xylanase activity.

Series [2] can be described thus: Enzymatic reaction rate (Lineweaver-Burk) of the purified xylanase. It is filed as biochemical.
Series [3] is described as follows: Xylanase activity (xylan decomposing activity) by DNS quantitative method at different pH and temperature. It is filed as biochemical. How it is done: as §1, with “minute. One clone showing the best activity, GM3-SLX1, was selected by liquid culture and solid culture activity test (FIG. 2).” for “minute.”
In this example, pH, temperature, and metal ion-dependent activity of xylanase over-expressed and isolated from the E. coli transformant over-expressing the novel xylanase constructed in Example <3-4> was investigated by the same manner as described in example 3-2. pH of the reaction solution was regulated to pH 4˜5 with citric acid buffer, to pH 6˜8 with phosphate buffer, to pH 7˜9 with Tris/HCl buffer, and to pH 9˜11 with glycine/NaOH buffer. To investigate the effect of metal ions on xylanase activity, CaCl2, MgCl2, MgCl2, CuCl2, ZnCl2, and FeCl3 were added by 1 mM each. It was further investigated how other salts such as NaCl, LiCl, KCl, NH4Cl, EDTA, CsCl2, 2-ME (2-Mercaptoethanol), DTT (Dithiothreitol), PMSF (Penylmethylsulfonyl fluoride), acetate, and furfural could affect xylanase activity.
E. coli BL21-Gold (DE) (Stratagene, USA) was transfected with pIVEX GST-xylanase recombinant vector (Bioprogen Co., Ltd., Korea) containing the gene (SEQ. ID. NO: 3) encoding the novel xylanase represented by SEQ. ID. NO: 4, which was inoculated in liquid medium (LB 25 g/L) supplemented with ampicillin (50 μg/ml), followed by shaking culture at 37° C. at 150 rpm until […] reached 0.4˜0.6. To induce the expression of the target protein in E. coli cells, IPTG (isopropyl-D-thiogalactoside) was added to the suspension at the concentration of 1 mM, followed by further culture for 3 hours. The culture solution was centrifuged at 10,000 rpm for 10 minutes and the recovered precipitate was washed with PBS twice. The washed precipitate was re-suspended in PBS and then cell were lysed by using a ultrasonicator (Cosmo Bio Co., LTD). Centrifugation was performed (12,000 rpm, 10 minutes) to obtain supernatant. To isolate xylanase from the supernatant, glutathione S-transferase column (GST binding resin column, Novagen) was used. For xylanase separation, the obtained supernatant was filled in glutathione S-transferase column (GST binding resin column, Novagen) equilibrated with washing buffer (50 mM Tris-HCl, 100 mM NaCl; pH 7.0), followed by treatment of factor Xa protease (NEB) and separation using washing buffer (50 mM Tris-HCl, 100 mM NaCl; pH 7.0). The enzyme activity of xylanase in each sample recovered from the purification stage was investigated. The purification of active fraction showing the enzyme activity was confirmed by SDS-PAGE. Protein content was measured by using Bradford method (Bradford, Sigma Aldrich), and BSA (bovine serum albumin) was used as the standard protein.

Setting [4] is: 1 mM additive, negative control = 100.
[5] abbreviates: 1 mM of heavy metal or additive.

Consider 18 molecules from patent US8956842B2, “Paenibacillus sp. HPL-3 strain producing xylanase having heat-resistance, a wide range of optimum pH and high activity, a novel xylanase separated from the strain, and a method for mass-production of the same using the transformant originated from the strain” (Korea Research Institute of Chemical Technology, priority 2011, dated 2015).

Read-outs that look alike come from different tables or passages of the source.

As to `O[C@H](CS)[C@H](O)CS` (racemic) [DTT, Dithiothreitol], the “Relative activity according to conc. of additive (%)” value (“Relative activity according … (%)” for short) in series [1] (setting [4]) is given as 95%.
Still for that read-out and setting: then `OCCS` [2-ME, 2-Mercaptoethanol], with 89%; and `CC(=O)O` [Acetate], with 101%.
On to `[Ca+2].[Cl-].[Cl-]` [CaCl2], for which the “Relative activity according … (%)” value in series [1] (setting [4]) is recorded as 102%.
On the same count and under the same terms, in the case of `[Cl-].[Cs+]` [CsCl2] it was 97%.
Take `O=S(=O)([O-])[O-].[Cu+2]` [CuSO4]: the “Relative activity according … (%)” value in series [1] (setting [4]) came to 26%. In series [1] (setting [5]), the “xylanase activity inhibited by” value was 74%. The “enzyme activity in presence of additive” value in series [1] (concentration of 100 HM) is reported as “hardly affected”.
Regarding `O=C(O)CN(CCN(CC(=O)O)CC(=O)O)CC(=O)O` [EDTA], in series [1], the “Relative activity according … (%)” value is on record as 54%, the “enzyme activity in presence of additive” value is listed as “hardly affected” and the “xylanase activity inhibited by” value was 46%.
Turning to `[Cl][Fe]([Cl])[Cl]` [FeCl3], the “Relative activity according … (%)” value in series [1] (setting [4]) turned out to be 88%. Further, in series [1] (setting [5]), the “xylanase activity inhibited by” value is reported as 12%. Moreover, the “enzyme activity in presence of additive” value in series [1] (concentration of 100 HM) was “hardly affected”.
With `O=Cc1ccco1` [Furfural, furfural], the “Relative activity according … (%)” value in series [1] (setting [4]) was 98%.
As for `[Cl-].[K+]` [KCl], the “Relative activity according … (%)” value in series [1] (setting [4]) stood at 101%.
Consider `[Cl-].[Li+]` [LiCl], for which the “Relative activity according … (%)” value in series [1] (setting [4]) is 101%.
Still for that read-out and setting: in the case of `[Cl-].[Cl-].[Mg+2]` [MgCl2] it was 93%.
On the same count and under the same terms, then `[Cl][Mn][Cl]` [MnCl2], with 98%; and `Cl.N` [NH4Cl], with 99%.
On to `[Cl-].[Na+]` [NaCl], for which, in series [1], the “Relative activity according … (%)” value stood at 105%.
In the case of `O=S(=O)(F)Cc1ccccc1` [PMSF, Penylmethylsulfonyl fluoride], the “Relative activity according … (%)” value in series [1] (setting [4]) stood at 95%.
For `O=S(=O)([O-])[O-].[Zn+2]` [ZnSO4], the “Relative activity according … (%)” value in series [1] (setting [4]) amounted to 72%. For the same molecule, the “xylanase activity inhibited by” value in series [1] (setting [5]) stood at 28%. The “enzyme activity in presence of additive” value in series [1] (concentration of 100 HM) was “hardly affected”.

B1: novel xylanase: approximately 65 kD xylanase of Paenibacillus sp. HPL-3, amino acid sequence SEQ. ID. NO: 4, produced in E. coli transformant (protein)
chain: MDTLKLYVESSNPAQAYYLDEVEIRQVSETPTTPPTEPTSGIESRFEDGTAQGWVSRMGTETVQVSNADARTGSYSLLTTGRQQTYAGPKLDVTATVQKGSRYTVSAWVKLAPGEQQPAKVRLSVQRDHQGESTYETVVGNTAITTGGWTHLYGTYTLAHEADTVSMYLETPEGTASFYMDDFELSLVPPLAIEKDIPSLHGLYQGQFSIGTAIEAFQTEGAYGELVQKHFNSVVAGNAMKPISLQPSEGQFHWEEADRIVQFAQQHGIAIRFHTLVWHNQTGDWMFKDKNGQPMTPTAENKKLLLDRLETHIRAVAARYKNVITDWDVVNEVIDPDQPDGMRRSKWYQITGTDYIDKAFRVTREAAGPNARLYINDYNTHEPKKRDFLYNLVRDLLAKGVPIDGVGHQSHIRLEFPAIDEMEQSIEKFASLGLDNQITELDMGLYSNDTDHYETIPEAMLIRQAHRYRALFDMFSRQQEHISNVTIWGTDDGNTWLSMFPIARLDKPLLFDERLKAKYAYWALVDPSKVPPLPAGSNE
modifications: SLX-O9 protein sequence
notes: approximately 65 kD xylanase of Paenibacillus sp; ID; NO: 4, produced in E. coli transformant
Turning to B1, the “xylanase activity against other xylans (beech, oats, etc) compared with birch xylan” value in series [2] is “similar”. The enzyme activity in series [3] (50° C., pH 5.0) is listed as 97.37 units; in series [3] (50° C., pH 6.0), 124.19 units; in series [3] (50° C., pH 7.0) it was 122.21 units; in series [3] (50° C., pH 8.0), 124.61 units; in series [3] (50° C., pH 9.0), 122.95 units; in series [3] (50° C., pH 10.0), 103.27 units. Further, the enzyme activity in series [3] (50° C., pH 11.0) is 96.08 units; in series [3] (60° C., pH 5.0, units = μM of xylose produced by 1 mg of enzyme per 1 minute), 26.93 units; in series [3] (60° C., pH 6.0) it was 105.19 units; in series [3] (60° C., pH 7.0) it was 123.56 units; in series [3] (60° C., pH 8.0), 120.95 units; in series [3] (60° C., pH 9.0) it was 112.25 units. Besides, the enzyme activity is recorded as 29.89 units in series [3] (60° C., pH 10.0) and 22.76 units in series [3] (60° C., pH 11.0). Further, in series [3] (after glutathione resin column purification), the “activity of purified enzyme compared with before purification” value is reported as “at least 5 times”. Besides, the “xylanase activity when conjugated onto the resin” value in series [3] (glutathione resin) was “not changed”.
